In US20200352913A1, “NEW METHOD FOR TREATING DENGUE VIRUS INFECTION” (INSERM (INSTITUT NATIONAL DE LA SANTÉ ET DE LA RECHERCHE …, priority 2017, published 2020):
“Also recorded” adds a separate entry of the source.

Key:
ZIKV NS1 glycosylation = ZIKV NS1 glycosylation under NGI-1 (immunoblot, data not shown); type: cell-based; details: dose dependent
Description: (§1) The OST complex is known to be required for flavivirus infection through mechanisms that are poorly understood (Marceau et al., 2016; Savidis et al., 2016; Zhang et al., 2016). In mammalians, there are two OST complexes, each composed of a catalytic subunit isoform (STT3A or STT3B) associated with a set of shared subunits (RPN1, RPN2, DDOST, DAD1 and OST4) (Cherepanova et al., 2016). Their main function is to transfer a preassembled oligosaccharide to selected asparagine residues within the consensus sequence asparagine-X-serine/threonine (Cherepanova et al., 2016). […] To test whether the OST complex contributes to NS1 or NS4B N-glycosylation, we transfected HEK-293T cells with a siRNA pool targeting RPN1, DDOST, STT3A or STT3B. […] We then examined the effect of NGI-1, a recently discovered N-linked glycosylation inhibitor that directly and reversibly interacts with the OST catalytic subunits (Lopez-Sambrooks et al., 2016). […] To pinpoint the effect of hypoglycosylation on NS1 stability, we transfected HEK-293T cells with plasmids encoding FLAG-NS1 WT or mutants lacking the first (N130Q), the second (N207Q), or both N-linked glycosylation sites (N130Q/N207Q) (data not shown).

DENV2_16681 [1] = test: DENV infection of monocyte-derived dendritic cells (FIG. 2E); type: cell-based, Dengue virus; details: DENV2_16681 MOI 5, 24h post infection
Description: (§2) FIG. 2. […] (A) HeLa cells were pre-incubated for 24h with increased concentration of NGI-1, or for 3h with MPA prior infection with DENV2_16681 (MOI 5). MPA, Mycophenolic acid. (B) Replication kinetics of DENV2 in HeLa replicon cells challenged with NGI-1 (2 μM) or MPA (10 μM) along the experiment duration. (C) Supernatants from HEK-293T cells transfected with FLAG-NS plasmids, were subjected to ELISA to quantify secreted NS1. (D) HeLa cells were incubated for 24 hours with NGI-1 and challenged in continuous presence of the drug with DENV1 (MOI 1), DENV2_16681 (MOI 5), DENV2_JAM (MOI 5), DENV3_THAI (MOI 5), WNV (MOI 1), ZIKV (MOI 1), CHIKV (MOI 5) or HSV (MOI 0.3). (E) Similarly treated primary skin fibroblast and monocyte derived dendritic cells (MDDC) were challenged with DENV2_16681 (MOI 5) and ZIKV_HD78788 (MOI 2). (D and E) The levels of infected cells were assessed 24h post infection by flow cytometry using respective anti-viral antibodies. (A-E) Data shown are means±SD of two independent experiments. Significance was calculated using a one-way ANOVA statistical test with a Dunnett's multiple (A, B and C) or Tukey comparison test (D and E). (n.s., not significant; **p<0.001; […]).

secreted NS1 = test: ELISA of secreted NS1 in supernatants (FIG. 2C); type: cell-based, DENV
Description: as §2
(§3) The OST complex is known to be required for flavivirus infection through mechanisms that are poorly understood (Marceau et al., 2016; Savidis et al., 2016; Zhang et al., 2016). […]

[2] = data not shown
Description: as §1

[3] = tested on: DENV2 replicon (vRNA amplification); test: Replication kinetics of DENV2 in HeLa replicon cells (FIG. 2B); type: cell-based, Dengue virus; details: NGI-1 2 μM
Description: as §2, §3

HSV = test: Infection of HeLa cells by HSV, flow cytometry (FIG. 2D); type: cell-based; details: MOI 0.3, 24h post infection
Description: as §2

DENV2_16681 [4] = test: DENV infection of HeLa cells pre-incubated with drug (FIG. 2A); type: cell-based, Dengue virus
Description: as §2, §3

DENV NS1 glycosylation = DENV NS1 glycosylation under NGI-1 (immunoblot, data not shown); type: cell-based; details: dose dependent
Description: as §1

DENV2_16681 [5] = test: DENV infection of human primary skin fibroblasts (FIG. 2E); type: cell-based, Dengue virus; details: DENV2_16681 MOI 5, 24h post infection
Description: as §2

[6] = tested on: DENV1, DENV2_16681, DENV2_JAM, DENV3_THAI; test: Infection of HeLa cells by DENV serotypes, flow cytometry (FIG. 2D); type: cell-based, Dengue virus; details: 24 h pre-incubation, continuous drug, 24h post infection
Description: as §2

WNV = test: Infection of HeLa cells by WNV, flow cytometry (FIG. 2D); type: cell-based, West Nile virus; details: MOI 1, 24h post infection
Description: as §2

Cell proliferation = Cell proliferation over time (FIG. 3); type: cell-based; details: NGI-1 2 μM, measured over time, RLU
Description: FIG. 3. Cell proliferation is not affected by NGI-1. Cell proliferation is measured over time after incubation with NGI-1 (2 μM), MPA (10 μM) or respective mock control. Data shown are means±S.D. of one representative experiment of three replicates. RLU, relative light units.

DENV2_16681 [7] = details: Diamond et al., 2002; targets de novo purine biosynthesis pathway; cited from earlier work

SMILES | ZIKV NS1 glycosylation (ZIKV NS1 glycosylation) | DENV infection of monocyte-derived dendritic cells (DENV2_16681 [1]) | NS1 secretion (secreted NS1) | cytotoxicity [2] | vRNA amplification [3] | infection by HSV (HSV) | antiviral activity compared with MPA (DENV2_16681 [4]; FIGS. 2A and B, NGI-1 2 μM, MPA 10 μM in replicon cells) | DENV infection (DENV2_16681 [4]; HeLa cells, 24h pre-incubation with increased concentration of NGI-1, DENV2_16681 MOI 5, dose dependent) | DENV NS1 glycosylation (DENV NS1 glycosylation) | DENV infection of human primary skin fibroblasts (DENV2_16681 [5]) | infection by the four DENV serotypes [6] | infection by WNV (WNV) | cell proliferation / antiproliferative effects (Cell proliferation) | DENV replication inhibition (literature) (DENV2_16681 [7])
Cc1cnc(NC(=O)c2cc(S(=O)(=O)N(C)C)ccc2N2CCCC2)s1 [NGI-1] | strongly impaired | significantly reduced | impaired | without any significant cytotoxicity | blocked | not | comparable to mycophenolic acid | significantly inhibited | strongly impaired | significantly reduced | blocked | blocked | not affected; also recorded: without any significant cytotoxicity (data not shown) or antiproliferative effects | –
COc1c(C)c2c(c(O)c1C/C=C(\C)CCC(=O)O)C(=O)OC2 [MPA, mycophenolic acid] | – | – | – | – | – | – | – | – | – | – | – | – | – | a well-known DENV replication inhibitor
